Data on 17 compounds can be found in patent publication US9399647B2, “Proteasome activity modulating compounds” (Proteostasis Therapeutics, Inc., priority 2012, dated 2016).

USP14, sequence (P54578 whole entry): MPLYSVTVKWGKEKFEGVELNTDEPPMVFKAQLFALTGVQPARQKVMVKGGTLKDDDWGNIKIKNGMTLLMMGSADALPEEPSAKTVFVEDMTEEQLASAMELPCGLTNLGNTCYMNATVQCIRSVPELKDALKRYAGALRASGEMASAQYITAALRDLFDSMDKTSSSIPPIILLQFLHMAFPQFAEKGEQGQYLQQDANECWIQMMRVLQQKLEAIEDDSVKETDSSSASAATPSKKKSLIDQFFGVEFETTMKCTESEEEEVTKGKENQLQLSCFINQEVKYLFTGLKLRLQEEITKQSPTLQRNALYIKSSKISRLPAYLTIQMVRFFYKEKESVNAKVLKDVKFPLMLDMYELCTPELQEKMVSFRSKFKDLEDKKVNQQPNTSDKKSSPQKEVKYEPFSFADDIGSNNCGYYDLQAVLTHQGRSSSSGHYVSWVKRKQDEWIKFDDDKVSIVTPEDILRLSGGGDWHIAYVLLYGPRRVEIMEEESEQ
USP14, sequence (Q13200 whole entry partner): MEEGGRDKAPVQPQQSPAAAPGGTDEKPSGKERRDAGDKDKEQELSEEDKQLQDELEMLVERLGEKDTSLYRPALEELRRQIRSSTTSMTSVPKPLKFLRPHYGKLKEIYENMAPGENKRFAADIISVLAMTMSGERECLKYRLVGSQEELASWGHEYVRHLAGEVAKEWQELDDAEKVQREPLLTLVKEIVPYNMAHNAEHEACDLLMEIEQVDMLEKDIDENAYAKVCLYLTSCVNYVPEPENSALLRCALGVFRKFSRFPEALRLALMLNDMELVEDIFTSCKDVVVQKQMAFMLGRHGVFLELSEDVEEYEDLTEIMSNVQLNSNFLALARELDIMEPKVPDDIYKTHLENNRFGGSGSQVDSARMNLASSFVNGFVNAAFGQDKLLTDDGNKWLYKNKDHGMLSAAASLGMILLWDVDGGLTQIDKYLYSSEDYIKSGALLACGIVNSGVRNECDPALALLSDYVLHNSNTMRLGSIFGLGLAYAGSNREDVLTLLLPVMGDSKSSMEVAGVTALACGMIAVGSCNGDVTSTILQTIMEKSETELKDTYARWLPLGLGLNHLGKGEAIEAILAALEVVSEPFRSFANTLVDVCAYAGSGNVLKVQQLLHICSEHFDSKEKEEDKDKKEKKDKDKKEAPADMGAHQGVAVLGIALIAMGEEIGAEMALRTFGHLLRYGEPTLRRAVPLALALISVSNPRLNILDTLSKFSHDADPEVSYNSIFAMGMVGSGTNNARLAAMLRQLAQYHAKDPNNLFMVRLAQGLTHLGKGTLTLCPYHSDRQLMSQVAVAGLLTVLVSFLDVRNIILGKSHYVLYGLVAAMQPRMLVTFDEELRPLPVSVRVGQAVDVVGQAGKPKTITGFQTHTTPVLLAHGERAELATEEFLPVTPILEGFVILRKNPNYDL
USP14, sequence (P35998 whole entry partner): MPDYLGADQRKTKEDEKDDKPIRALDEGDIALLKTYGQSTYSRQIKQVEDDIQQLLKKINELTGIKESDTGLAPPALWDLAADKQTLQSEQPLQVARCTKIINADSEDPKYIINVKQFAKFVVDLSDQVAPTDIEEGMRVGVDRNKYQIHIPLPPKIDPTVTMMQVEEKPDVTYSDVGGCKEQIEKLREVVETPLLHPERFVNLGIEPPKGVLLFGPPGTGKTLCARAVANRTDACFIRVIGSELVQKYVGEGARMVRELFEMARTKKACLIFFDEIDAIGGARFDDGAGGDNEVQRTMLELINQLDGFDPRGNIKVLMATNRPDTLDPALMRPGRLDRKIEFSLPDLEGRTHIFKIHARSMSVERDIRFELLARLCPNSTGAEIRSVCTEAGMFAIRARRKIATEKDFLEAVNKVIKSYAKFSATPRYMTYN

The assay deals with USP14 (Homo sapiens, UniProt P54578). The assay can be described thus: USP14 inhibition assay. The assay is classed as biochemical. The note with it: average value from three experimental determinations; reported as potency bands; read-out: IC50 (USP14 inhibition). An excerpt:
The IC50 values in the Table below represent the average value from three experimental determinations.
These IC50 values represent the average value from three experimental determinations.
For `CN(c1nc(CC(=O)N2CC[C@@H](C(C)(C)O)C2)nc2sc3c(c12)CCCC3)C1CC1` [Compound 37, 2-[4-(Cyclopropyl-methyl-amino)-5,6,7,8-tetrahydro-benzo[4,5]thieno[2,3-d]pyrimidin-2-yl]-1-[(R)-3-(1-hydroxy-1-methyl-ethyl)-pyrrolidin-1-yl]-ethanone], the half-inhibitory concentration (IC50) (in general, the point on the concentration scale where inhibition reaches its midpoint) was < 1 µM. For `CN(c1nc(CC(=O)N2CCCC2C(N)=O)nc2sc3c(c12)CCCC3)C1CC1` (centres unmarked) [Compound 38, 1-(2-(4-(Cyclopropyl(methyl)amino)-5,6,7,8-tetrahydrobenzo[4,5]thieno[2,3-d]pyrimidin-2-yl)acetyl)pyrrolidine-2-carboxamide], the IC50 was < 1 µM. On to `CN(c1nc(CC(=O)N2CCCC2CO)nc2sc3c(c12)CCCC3)C1CC1` (centres unmarked) [Compound 39, 2-[4-(Cyclopropyl-methyl-amino)-5,6,7,8-tetrahydro-benzo[4,5]thieno[2,3-d]pyrimidin-2-yl]-1-(2-hydroxymethyl-pyrrolidin-1-yl)-ethanone], for which the IC50 was < 1 µM. On to `CCOC(=O)Cc1nc(N(C)CC)c2c3c(sc2n1)CCCC3` [Compound 40, [4-(Ethyl-methyl-amino)-5,6,7,8-tetrahydro-benzo[4,5]thieno[2,3-d]pyrimidin-2-yl]-acetic acid ethyl ester], for which the IC50 was > 5 µM. In the case of `CCOC(=O)Cc1nc(N(C)C(C)C)c2c3c(sc2n1)CCCC3` [Compound 41, [4-(Isopropyl-methyl-amino)-5,6,7,8-tetrahydro-benzo[4,5]thieno[2,3-d]pyrimidin-2-yl]-acetic acid ethyl ester], the IC50 is > 5 µM. With `CN(C)C(=O)Cc1nc(N2CCCC2)c2c3c(sc2n1)CCCC3` [Compound 42, N,N-Dimethyl-2-(4-pyrrolidin-1-yl-5,6,7,8-tetrahydro-benzo[4,5]thieno[2,3-d]pyrimidin-2-yl)-acetamide], the IC50 was > 5 µM. Take `CN(C)C(=O)Cc1nc(N(C)C)c2c3c(sc2n1)CCCC3` [Compound 43, 2-(4-Dimethylamino-5,6,7,8-tetrahydro-benzo[4,5]thieno[2,3-d]pyrimidin-2-yl)-N,N-dimethyl-acetamide]: the IC50 was in the range of 1 to 5 µM.

For `CN(C)C(=O)Cc1nc(N2CCC2)c2c3c(sc2n1)CCCC3` [Compound 44, 2-(4-(Azetidin-1-yl)-5,6,7,8-tetrahydrobenzo[4,5]thieno[2,3-d]pyrimidin-2-yl)-N,N-dimethylacetamide], the 50% inhibitory concentration (IC50) is > 5 µM. In the case of `CCN(C)c1nc(CC(=O)O)nc2sc3c(c12)CCCC3` [Compound 45, [4-(Ethyl-methyl-amino)-5,6,7,8-tetrahydro-benzo[4,5]thieno[2,3-d]pyrimidin-2-yl]-acetic acid], the IC50 was > 5 µM. The figure for `CC(C)N(C)c1nc(CC(=O)O)nc2sc3c(c12)CCCC3` [Compound 46, [4-(Isopropyl-methyl-amino)-5,6,7,8-tetrahydro-benzo[4,5]thieno[2,3-d]pyrimidin-2-yl]-acetic acid] is > 5 µM; for `CN(c1nc(CCC(=O)O)nc2sc3c(c12)CCCC3)C1CC1` [Compound 47, 3-[4-(Cyclopropyl-methyl-amino)-5,6,7,8-tetrahydro-[1]benzothiopheno[2,3-d]pyrimidin-2-yl]-propionic acid] it is 1 to 5 µM; for `CN(C)C(=O)CCc1nc(N(C)C2CC2)c2c3c(sc2n1)CCCC3` [Compound 48, 3-[4-(Cyclopropyl-methyl-amino)-5,6,7,8-tetrahydro-[1]benzothiopheno[2,3-d]pyrimidin-2-yl]-N,N-dimethyl-propionamide] it is 1 to 5 µM. On to `CN(c1nc(CO)nc2sc3c(c12)CCCC3)C1CC1` [Compound 49, [4-(Cyclopropyl-methyl-amino)-5,6,7,8-tetrahydro-benzo[4,5]thieno[2,3-d]pyrimidin-2-yl]-methanol], for which the half-maximal inhibitory concentration (IC50) is 1 to 5 µM. As to `CN(c1nc(COc2cccnc2)nc2sc3c(c12)CCCC3)C1CC1` [Compound 50, Cyclopropyl-methyl-[2-(pyridine-3-yloxymethyl)-5,6,7,8-tetrahydro-benzo[4,5]thieno[2,3-d]pyrimidin-4-yl]-amine], the IC50 is > 5 µM. For the compound `CN(c1nc(CC(=O)C(F)(F)F)nc2sc3c(c12)CCCC3)C1CC1` [Compound 51, 3-[4-(Cyclopropyl-methyl-amino)-5,6,7,8-tetrahydrobenzo[4,5]thieno[2,3-d]pyrimidin-2-yl]-1,1,1-trifluoro-propan-2-one], the IC50 lay within 1 to 5 µM. For the compound `CN(c1nc(CC(=O)O)nc2sc3c(c12)CCCCC3)C1CC1` [Compound 52, [4-(Cyclopropyl-methyl-amino)-6,7,8,9-tetrahydro-5H-10-thia-1,3-diazabenz[a]azulen-2-yl]-acetic acid], the IC50 was > 5 µM. On to `CN(C)C(=O)Cc1nc(N(C)C2CC2)c2c3c(sc2n1)CCCCC3` [Compound 53, 2-[4-(Cyclopropyl-methyl-amino)-6,7,8,9-tetrahydro-5H-10-thia-1,3-diaza-benz[a]azulen-2-yl]-N,N-dimethyl-acetamide], for which the half-maximal inhibitory concentration (IC50) lay within 1 to 5 µM.
